How the values were obtained:
Experiment in all cases: KinomeScan kinase panel
Format in all cases: binding
[1] = target: T1, ABL1(F317L)-phosphorylated (Homo sapiens, UniProt P00519, F317L)
T1 construct: purchased DiscoveRx Corporation (KinomeScan)
Outline: (§1)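 Read-out is inhibition at one dose. Compound concentration was 1000 nM, run through the 442-kinase KinomeScan platform.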

ABL1-phosphorylated = target: T2, ABL1-phosphorylated (Homo sapiens, UniProt P00519)
T2 construct: purchased DiscoveRx Corporation (KinomeScan)
Outline: as §1

ADCK3 = target: T3, ADCK3 (Homo sapiens, UniProt Q8NI60)
T3 construct: purchased DiscoveRx Corporation (KinomeScan)
Outline: as §1

CAMK1D = target: T4, CAMK1D (Homo sapiens, UniProt Q8IU85)
T4 construct: purchased DiscoveRx Corporation (KinomeScan)
Outline: as §1

CAMK2B = target: T5, CAMK2B (Homo sapiens, UniProt Q13554)
T5 construct: purchased DiscoveRx Corporation (KinomeScan)
Outline: as §1

CASK = target: T6, CASK (Homo sapiens, UniProt O14936)
T6 construct: purchased DiscoveRx Corporation (KinomeScan)
Outline: as §1

CDK3 = target: T7, CDK3 (Homo sapiens, UniProt Q00526)
T7 construct: purchased DiscoveRx Corporation (KinomeScan)
Outline: as §1

CSNK1G1 = target: T8, CSNK1G1 (Homo sapiens, UniProt Q9HCP0)
T8 construct: purchased DiscoveRx Corporation (KinomeScan)
Outline: as §1

EGFR(L747-S752del,P753S) = target: T9, EGFR(L747-S752del,P753S) (Homo sapiens, UniProt P00533, DEL747-752/P753S)
T9 construct: purchased DiscoveRx Corporation (KinomeScan)
Outline: as §1

FRK = target: T10, FRK (Homo sapiens, UniProt P42685)
T10 construct: purchased DiscoveRx Corporation (KinomeScan)
Outline: as §1

GRK4 = target: T11, GRK4 (Homo sapiens, UniProt P32298)
T11 construct: purchased DiscoveRx Corporation (KinomeScan)
Outline: as §1

GSK3A = target: T12, GSK3A (Homo sapiens, UniProt P49840)
T12 construct: purchased DiscoveRx Corporation (KinomeScan)
Outline: as §1

HIPK4 = target: T13, HIPK4 (Homo sapiens, UniProt Q8NE63)
T13 construct: purchased DiscoveRx Corporation (KinomeScan)
Outline: as §1

HUNK = target: T14, HUNK (Homo sapiens, UniProt P57058)
T14 construct: purchased DiscoveRx Corporation (KinomeScan)
Outline: as §1

INSRR = target: T15, INSRR (Homo sapiens, UniProt P14616)
T15 construct: purchased DiscoveRx Corporation (KinomeScan)
Outline: as §1

KIT(D816H) = target: T16, KIT(D816H) (Homo sapiens, UniProt P10721, D816H)
T16 construct: purchased DiscoveRx Corporation (KinomeScan)
Outline: as §1

KIT(V559D) = target: T17, KIT(V559D) (Homo sapiens, UniProt P10721, V559D)
T17 construct: purchased DiscoveRx Corporation (KinomeScan)
Outline: as §1

LCK = target: T18, LCK (Homo sapiens, UniProt P06239)
T18 construct: purchased DiscoveRx Corporation (KinomeScan)
Outline: as §1

MAP3K2 = target: T19, MAP3K2 (Homo sapiens, UniProt Q9Y2U5)
T19 construct: purchased DiscoveRx Corporation (KinomeScan)
Outline: as §1

MEK6 = target: T20, MEK6 (Homo sapiens, UniProt P52564)
T20 construct: purchased DiscoveRx Corporation (KinomeScan)
Outline: as §1

MET(Y1235D) = target: T21, MET(Y1235D) (Homo sapiens, UniProt P08581, Y1235D)
T21 construct: purchased DiscoveRx Corporation (KinomeScan)
Outline: as §1

MRCKA = target: T22, MRCKA (Homo sapiens, UniProt Q5VT25)
T22 construct: purchased DiscoveRx Corporation (KinomeScan)
Outline: as §1

MYO3B = target: T23, MYO3B (Homo sapiens, UniProt Q8WXR4)
T23 construct: purchased DiscoveRx Corporation (KinomeScan)
Outline: as §1

PIK3CA = target: T24, PIK3CA (Homo sapiens, UniProt P42336)
T24 construct: purchased DiscoveRx Corporation (KinomeScan)
Outline: as §1

PIK3CA(C420R) = target: T25, PIK3CA(C420R) (Homo sapiens, UniProt P42336, C420R)
T25 construct: purchased DiscoveRx Corporation (KinomeScan)
Outline: as §1

PIK4CB = target: T26, PIK4CB (Homo sapiens, UniProt Q9UBF8)
T26 construct: purchased DiscoveRx Corporation (KinomeScan)
Outline: as §1

PIM3 = target: T27, PIM3 (Homo sapiens, UniProt Q86V86)
T27 construct: purchased DiscoveRx Corporation (KinomeScan)
Outline: as §1

PRKG2 = target: T28, PRKG2 (Homo sapiens, UniProt Q13237)
T28 construct: purchased DiscoveRx Corporation (KinomeScan)
Outline: as §1

RIPK2 = target: T29, RIPK2 (Homo sapiens, UniProt O43353)
T29 construct: purchased DiscoveRx Corporation
Outline: as §1

ROCK2 = target: T30, ROCK2 (Homo sapiens, UniProt O75116)
T30 construct: purchased DiscoveRx Corporation
Outline: as §1

SIK = target: T31, SIK (Homo sapiens, UniProt P57059)
T31 construct: purchased DiscoveRx Corporation (KinomeScan)
Outline: as §1

TGFBR1 = target: T32, TGFBR1 (Homo sapiens, UniProt P36897)
T32 construct: purchased DiscoveRx Corporation (KinomeScan)
Outline: as §1

TRKB = target: T33, TRKB (Homo sapiens, UniProt Q16620)
T33 construct: purchased DiscoveRx Corporation (KinomeScan)
Outline: as §1

TYRO3 = target: T34, TYRO3 (Homo sapiens, UniProt Q06418)
T34 construct: purchased DiscoveRx Corporation (KinomeScan service)
Outline: as §1

ULK3 = target: T35, ULK3 (Homo sapiens, UniProt Q6PHR2)
T35 construct: purchased DiscoveRx Corporation (KinomeScan service)
Outline: as §1

ZAP7C = target: T36, ZAP7C (Homo sapiens, UniProt P43403)
T36 construct: purchased DiscoveRx Corporation (KinomeScan service)
Outline: as §1

T11 sequence (P32298 whole entry): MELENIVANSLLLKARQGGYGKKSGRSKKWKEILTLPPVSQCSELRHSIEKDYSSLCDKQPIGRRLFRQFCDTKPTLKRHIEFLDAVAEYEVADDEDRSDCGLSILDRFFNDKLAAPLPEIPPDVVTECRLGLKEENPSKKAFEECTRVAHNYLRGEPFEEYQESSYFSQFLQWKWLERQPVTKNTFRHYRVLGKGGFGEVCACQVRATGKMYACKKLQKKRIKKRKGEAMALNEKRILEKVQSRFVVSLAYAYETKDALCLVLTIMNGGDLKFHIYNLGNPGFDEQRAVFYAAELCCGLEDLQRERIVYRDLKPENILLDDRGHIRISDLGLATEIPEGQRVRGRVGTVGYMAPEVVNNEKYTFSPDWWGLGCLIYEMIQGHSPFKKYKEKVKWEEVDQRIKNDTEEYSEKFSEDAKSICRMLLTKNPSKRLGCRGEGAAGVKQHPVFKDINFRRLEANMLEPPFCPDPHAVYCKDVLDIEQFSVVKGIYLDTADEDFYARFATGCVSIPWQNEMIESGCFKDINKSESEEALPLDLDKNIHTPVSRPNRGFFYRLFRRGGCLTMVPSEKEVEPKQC
T32 sequence (P36897 34-503): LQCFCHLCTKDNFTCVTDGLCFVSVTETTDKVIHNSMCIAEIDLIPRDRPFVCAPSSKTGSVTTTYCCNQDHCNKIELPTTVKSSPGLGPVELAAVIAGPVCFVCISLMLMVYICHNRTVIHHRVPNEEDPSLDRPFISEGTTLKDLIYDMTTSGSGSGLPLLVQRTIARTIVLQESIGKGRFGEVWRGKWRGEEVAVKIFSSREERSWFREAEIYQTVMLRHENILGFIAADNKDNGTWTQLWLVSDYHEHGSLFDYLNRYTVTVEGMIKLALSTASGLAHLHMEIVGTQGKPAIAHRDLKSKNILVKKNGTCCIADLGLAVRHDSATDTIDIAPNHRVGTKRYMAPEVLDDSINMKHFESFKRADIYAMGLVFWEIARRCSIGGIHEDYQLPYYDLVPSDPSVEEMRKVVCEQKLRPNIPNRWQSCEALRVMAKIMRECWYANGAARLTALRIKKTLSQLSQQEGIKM
T35 sequence (Q6PHR2 whole entry): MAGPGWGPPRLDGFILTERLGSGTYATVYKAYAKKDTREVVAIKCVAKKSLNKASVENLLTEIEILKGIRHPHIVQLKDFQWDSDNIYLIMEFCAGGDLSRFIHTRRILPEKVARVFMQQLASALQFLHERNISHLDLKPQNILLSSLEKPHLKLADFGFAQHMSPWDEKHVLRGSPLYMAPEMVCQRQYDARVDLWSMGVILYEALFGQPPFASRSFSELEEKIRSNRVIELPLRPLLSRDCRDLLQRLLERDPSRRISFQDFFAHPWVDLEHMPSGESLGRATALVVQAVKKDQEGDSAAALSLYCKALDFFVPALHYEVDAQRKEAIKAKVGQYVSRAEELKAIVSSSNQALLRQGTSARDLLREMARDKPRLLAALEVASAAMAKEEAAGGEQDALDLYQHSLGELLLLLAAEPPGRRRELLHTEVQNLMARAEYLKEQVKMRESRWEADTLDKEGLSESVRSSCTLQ
T16 sequence (P10721 26-976 D816H): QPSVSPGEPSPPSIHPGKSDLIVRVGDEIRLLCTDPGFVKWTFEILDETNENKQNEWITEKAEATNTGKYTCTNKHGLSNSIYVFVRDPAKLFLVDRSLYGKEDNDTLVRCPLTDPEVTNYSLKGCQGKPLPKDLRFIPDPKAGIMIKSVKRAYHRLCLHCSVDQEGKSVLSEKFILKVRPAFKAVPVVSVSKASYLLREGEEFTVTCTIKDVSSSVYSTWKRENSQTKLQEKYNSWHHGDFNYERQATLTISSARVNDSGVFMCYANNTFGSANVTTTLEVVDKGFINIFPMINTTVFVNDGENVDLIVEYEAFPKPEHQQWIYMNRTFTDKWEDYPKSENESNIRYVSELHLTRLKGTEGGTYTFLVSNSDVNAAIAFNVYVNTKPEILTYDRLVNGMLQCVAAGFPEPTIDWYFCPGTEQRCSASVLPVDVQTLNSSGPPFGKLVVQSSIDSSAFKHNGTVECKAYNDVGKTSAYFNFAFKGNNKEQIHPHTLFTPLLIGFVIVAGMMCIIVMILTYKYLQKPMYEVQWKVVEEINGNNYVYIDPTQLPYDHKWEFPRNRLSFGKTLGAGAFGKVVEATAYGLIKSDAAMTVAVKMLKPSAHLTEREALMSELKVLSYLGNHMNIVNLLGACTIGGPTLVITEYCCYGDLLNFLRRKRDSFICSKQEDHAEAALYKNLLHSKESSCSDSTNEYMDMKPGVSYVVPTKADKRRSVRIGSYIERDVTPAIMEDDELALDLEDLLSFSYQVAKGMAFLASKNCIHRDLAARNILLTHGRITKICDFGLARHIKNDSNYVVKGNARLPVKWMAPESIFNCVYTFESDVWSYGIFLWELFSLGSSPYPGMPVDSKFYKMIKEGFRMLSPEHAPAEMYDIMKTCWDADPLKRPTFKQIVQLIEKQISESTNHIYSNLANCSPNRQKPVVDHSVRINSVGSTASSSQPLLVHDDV
T31 sequence (P57059 whole entry): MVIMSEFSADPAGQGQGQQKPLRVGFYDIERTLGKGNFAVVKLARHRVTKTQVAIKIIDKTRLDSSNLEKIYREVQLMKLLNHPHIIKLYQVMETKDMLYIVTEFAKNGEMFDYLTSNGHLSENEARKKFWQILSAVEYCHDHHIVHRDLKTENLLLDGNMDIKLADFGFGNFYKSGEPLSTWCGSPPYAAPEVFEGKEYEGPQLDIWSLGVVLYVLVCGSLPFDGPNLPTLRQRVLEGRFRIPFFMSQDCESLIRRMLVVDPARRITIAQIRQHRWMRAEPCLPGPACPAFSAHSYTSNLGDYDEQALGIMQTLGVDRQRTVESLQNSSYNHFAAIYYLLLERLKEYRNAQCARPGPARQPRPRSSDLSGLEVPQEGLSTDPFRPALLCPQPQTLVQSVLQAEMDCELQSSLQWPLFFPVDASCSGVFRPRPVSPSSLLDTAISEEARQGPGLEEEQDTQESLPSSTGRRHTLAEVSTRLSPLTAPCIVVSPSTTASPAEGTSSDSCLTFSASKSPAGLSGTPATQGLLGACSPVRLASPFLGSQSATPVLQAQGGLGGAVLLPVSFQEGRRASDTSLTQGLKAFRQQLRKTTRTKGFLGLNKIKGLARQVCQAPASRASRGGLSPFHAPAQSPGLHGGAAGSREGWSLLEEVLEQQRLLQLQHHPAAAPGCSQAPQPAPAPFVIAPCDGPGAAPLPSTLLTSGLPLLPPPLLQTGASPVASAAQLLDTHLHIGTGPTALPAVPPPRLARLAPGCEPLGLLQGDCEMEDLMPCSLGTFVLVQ
T2 sequence (P00519 whole entry): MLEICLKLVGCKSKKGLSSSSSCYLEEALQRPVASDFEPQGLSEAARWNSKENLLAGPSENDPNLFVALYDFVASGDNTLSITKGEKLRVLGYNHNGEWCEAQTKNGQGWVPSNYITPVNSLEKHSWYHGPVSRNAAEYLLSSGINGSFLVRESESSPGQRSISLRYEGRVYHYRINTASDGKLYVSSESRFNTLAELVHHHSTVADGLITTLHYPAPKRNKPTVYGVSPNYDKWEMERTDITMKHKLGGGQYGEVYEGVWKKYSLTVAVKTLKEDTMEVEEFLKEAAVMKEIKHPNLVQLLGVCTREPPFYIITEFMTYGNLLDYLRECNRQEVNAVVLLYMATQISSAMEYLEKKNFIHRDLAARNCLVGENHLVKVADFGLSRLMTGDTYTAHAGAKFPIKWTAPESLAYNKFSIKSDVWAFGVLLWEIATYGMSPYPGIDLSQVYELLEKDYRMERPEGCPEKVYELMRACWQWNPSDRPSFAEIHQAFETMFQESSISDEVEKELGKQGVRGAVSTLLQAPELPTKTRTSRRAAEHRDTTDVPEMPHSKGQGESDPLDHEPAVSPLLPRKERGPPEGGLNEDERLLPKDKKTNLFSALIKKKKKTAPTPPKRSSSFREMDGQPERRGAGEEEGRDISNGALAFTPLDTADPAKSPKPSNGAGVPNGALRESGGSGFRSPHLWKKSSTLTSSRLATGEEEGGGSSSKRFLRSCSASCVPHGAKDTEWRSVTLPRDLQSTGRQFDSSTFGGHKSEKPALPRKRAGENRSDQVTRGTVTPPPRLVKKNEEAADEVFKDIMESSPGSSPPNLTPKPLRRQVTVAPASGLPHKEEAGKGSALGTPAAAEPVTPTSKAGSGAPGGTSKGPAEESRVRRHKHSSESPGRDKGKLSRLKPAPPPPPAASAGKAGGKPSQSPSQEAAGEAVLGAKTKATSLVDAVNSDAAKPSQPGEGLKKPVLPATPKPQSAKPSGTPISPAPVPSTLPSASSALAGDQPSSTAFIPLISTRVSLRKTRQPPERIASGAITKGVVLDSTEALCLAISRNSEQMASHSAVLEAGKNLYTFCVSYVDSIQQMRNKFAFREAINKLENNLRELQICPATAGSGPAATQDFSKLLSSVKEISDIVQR
T29 sequence (O43353 whole entry): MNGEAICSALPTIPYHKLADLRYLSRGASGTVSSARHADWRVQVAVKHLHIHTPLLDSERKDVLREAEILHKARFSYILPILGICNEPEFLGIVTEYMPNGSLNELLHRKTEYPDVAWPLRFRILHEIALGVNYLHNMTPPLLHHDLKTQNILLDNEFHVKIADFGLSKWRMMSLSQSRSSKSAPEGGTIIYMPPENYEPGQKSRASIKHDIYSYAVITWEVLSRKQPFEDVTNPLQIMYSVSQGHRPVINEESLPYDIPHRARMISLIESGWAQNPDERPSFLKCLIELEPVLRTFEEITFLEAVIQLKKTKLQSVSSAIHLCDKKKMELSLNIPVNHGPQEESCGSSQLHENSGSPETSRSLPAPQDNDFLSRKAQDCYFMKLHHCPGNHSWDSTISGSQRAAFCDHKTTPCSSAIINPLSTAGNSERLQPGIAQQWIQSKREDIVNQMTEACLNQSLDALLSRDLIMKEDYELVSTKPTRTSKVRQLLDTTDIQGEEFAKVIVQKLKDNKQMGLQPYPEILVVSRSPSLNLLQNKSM
T17 sequence (P10721 26-976 V559D): as the sequence (P10721 26-976 D816H) above, with V534D, H791D counted along it
T1 sequence (P00519 whole entry F317L): as the sequence (P00519 whole entry) above, with F317L counted along it

With `CCOP(=O)(CN1CCC(COc2cc3nccc(Oc4ccc(NC(=O)C5(C(=O)Nc6ccc(F)cc6)CC5)cc4F)c3cc2OC)CC1)OCC` [Example 10, N1-[4-[[7-[[1-(diethoxyphosphorylmethyl)-4-piperidinyl]methoxyl]-6-methoxyl-4-quinolyl]oxyl]-3-fluorophenyl]-N1′-(4-fluorophenyl)cyclopropane-1,1-dicarboxamide] the “% Ctrl@1000 nM” value [1] was 69 % Ctrl, the “% Ctrl@1000 nM” value (ABL1-phosphorylated) was 33 % Ctrl and the “% Ctrl@1000 nM” value (ADCK3) was 67 % Ctrl. For the same molecule, the “% Ctrl@1000 nM” value (CAMK1D) was 96 % Ctrl, the “% Ctrl@1000 nM” value (CAMK2B) was 100 % Ctrl and the “% Ctrl@1000 nM” value (CASK) was 100 % Ctrl. The “% Ctrl@1000 nM” value (CDK3) was 100 % Ctrl, the “% Ctrl@1000 nM” value (CSNK1G1) was 100 % Ctrl and the “% Ctrl@1000 nM” value (EGFR(L747-S752del,P753S)) was 67 % Ctrl. For the same molecule, the “% Ctrl@1000 nM” value (FRK) was 8.8 % Ctrl, the “% Ctrl@1000 nM” value (GRK4) was 78 % Ctrl and the “% Ctrl@1000 nM” value (GSK3A) was 100 % Ctrl. For the same molecule, the “% Ctrl@1000 nM” value (HIPK4) was 0.15 % Ctrl, the “% Ctrl@1000 nM” value (HUNK) was 100 % Ctrl and the “% Ctrl@1000 nM” value (INSRR) was 65 % Ctrl. For the same molecule, the “% Ctrl@1000 nM” value (KIT(D816H)) was 63 % Ctrl, the “% Ctrl@1000 nM” value (KIT(V559D)) was 0.15 % Ctrl and the “% Ctrl@1000 nM” value (LCK) was 2.2 % Ctrl. The “% Ctrl@1000 nM” value (MAP3K2) was 100 % Ctrl, the “% Ctrl@1000 nM” value (MEK6) was 87 % Ctrl and the “% Ctrl@1000 nM” value (MET(Y1235D)) was 4.4 % Ctrl. For the same molecule, the “% Ctrl@1000 nM” value (MRCKA) was 100 % Ctrl, the “% Ctrl@1000 nM” value (MYO3B) was 100 % Ctrl and the “% Ctrl@1000 nM” value (PIK3CA) was 100 % Ctrl. The “% Ctrl@1000 nM” value (PIK3CA(C420R)) was 100 % Ctrl, the “% Ctrl@1000 nM” value (PIK4CB) was 100 % Ctrl and the “% Ctrl@1000 nM” value (PIM3) was 67 % Ctrl. The “% Ctrl@1000 nM” value (PRKG2) was 100 % Ctrl, the “% Ctrl@1000 nM” value (RIPK2) was 30 % Ctrl and the “% Ctrl@1000 nM” value (ROCK2) was 100 % Ctrl. The “% Ctrl@1000 nM” value (SIK) was 60 % Ctrl, the “% Ctrl@1000 nM” value (TGFBR1) was 100 % Ctrl and the “% Ctrl@1000 nM” value (TRKB) was 4 % Ctrl. The “% Ctrl@1000 nM” value (TYRO3) was 41 % Ctrl, the “% Ctrl@1000 nM” value (ULK3) was 82 % Ctrl and the “% Ctrl@1000 nM” value (ZAP7C) was 81 % Ctrl.
